Reference: patent US20060229255A1, “Identification of n-alkylglycine trimers for induction of apoptosis” (priority 2003, published 2006)

What was measured:
Type in all cases: cell-based, human
[1] = system: T98 g cells; test: Cell cycle DNA analysis in synchronized cells; conditions: 19 h after serum re-addition, 100 μM
Experimental: Experimentally this finding was substantiated analysing the compounds in a cellular model with synchronized cells. T98 g cells were arrested in G1 phase (82%) by serum starvation in MCDB 105 medium after 72 h. Upon 10% serum re-addition, cells were allowed to re-enter into the cell cycle. More than 50% of the cells were in the S-phase, and only 20% remained in G1 after 19 h of FCS introduction. Addition of N10-13-10C or N13-13-10C to the cultures at the moment of serum addition restrained S-phase entry (FIG. 7. A). Around 40% of the cells were retained in G1. In conclusions both N10-13-10C and N13-13-10C were able to induce a G1 arrest either in asynchronous or in synchronized cell cultures, as determined by cell cycle DNA analysis. In comparison, Olomucine which is a cdk2 inhibitor, retained 80% of the cells in G1. The topoisomerase II inhibitor etoposide treated cells were arrested in S phase of the cell cycle (85% of the cell population).
DNA analysis. Floating and adherent cells treated with the compounds were collected by trypsinization and washed twice with PBS. The cells were permeabilized overnight at −20° C. with ice-cold ethanol 70%. The cells were washed in PBS, adjusted at 0.5×10^6 cells/ml and incubated with 20 μg/ml Propidium Iodide and 2 μl/ml RNase DNase-free for 30 min at 30° C. Cells were maintained overnight at 4° C. and then analysed by flow cytometry. Flow cytometric experiments were carried out using an Epics XL flow cytometer (Coulter Corporation, Hialeah, Fla.). The instrumet was set up with the standard configuration: excitation of the sample was done using an standard 488 nm air-cooled argon-ion laser at 15 mW power. Forward scatter (FSC), side scatter (SSC) and red (620 nm) fluorescence for PI were adquired. Optical alignement was based on optimized signal from […] fluorescent beads (Immunocheck, Epics Division). Time was used as a control of the stability of the instrument. Red fluorescence was projected on a 1024 monoparametrical histogram. Aggregates were excluded gating single cells by their area vs. peak fluorescence signal. DNA analysis (Ploidy analysis) on single fluorescence histograms was done using Multicycle software (Phoenix Flow Systems, San Diego, Calif.).
(§1) FIG. 7. […] (A) T98 g cells were synchronized and reinitiated for 19 h with FCS alone or in combination with N10-13-10C (100 μM), N13-13-10C (100 μM), Olomucine (100 μM), etoposide (5 μM) or Taxol (30 nM). Cell cycle profile was assessed by propidium iodide DNA staining and analyzed by flow cytometry. The fraction of cells with G1, S, G2/M DNA content are shown as % of total cell population. (B. and C.) Synchronized T98 g cells were reinitiated with FCS alone or in combination with serial dilutions of N4-13-10C, N5-13-10C, N10-13-10C, N13-13-10C, Olomucine or etoposide for 19 h and labeled with BrdU during the last 2 h. BrdU incorporation was assessed by ELISA using anti-BrdU antibodies. An arbitrary value of 100% was assigned to the densiometric rate of DNA synthesis by untreated cultures and all other values are depicted relative to that reference. The values are means of three (n=3) replicates.

[2] = system: T98g glioblastoma cells; test: BrdU incorporation assay (DNA synthesis); conditions: synchronized T98 g, 17 h + 2 h BrdU; read-out: IC50 BrdU incorporation (DNA synthesis inhibition)
Experimental: To confirm the G1 arrest of the cell cycle, we analyzed the DNA synthesis by an BrdU incorporation assay. Serial dilutions of the compounds N4-13-10C, N5-13-10C, N10-13-10C, N13-13-10C, etoposide or olomucine were assayed on synchronized T98 g cells as described in FIG. 7. A. Arrested cells were induced to cell cycle re-entry by re-addition of serum alone or with test compounds for 17 h, followed by 2 h in combination with 10 μM BrdU.
BrdU assay. T98g glioblastoma cells at 5000 cells/well in microtiter plates were arrested in G1-phase for 72 h by serum deprivation in MCDB 105 medium. By serum (10%) readdition, cells were treated with serial dilutions of the compounds for 17 h, and followed in combination 10 μM BrdU for […]. BrdU incorporation, i.e. DNA synthesis, was quantified with Cell Proliferation ELISA system, vs. 2 (AmershamPharmacia biotech) as described by the manufacturer.
as §1

[3] = system: pRb, p21Cip1, p27Kip1; test: Western blot of G0/G1 checkpoint proteins in HT29 cells; conditions: for pRb levels compared to controls: HT29, after 24 h in culture
Experimental: Western blotting. Floating and adherent cells were harvested and pellets were resuspended in RIPA buffer (50 mM Tris/HCl 7.4, 250 mM NaCl, 0,5% Igepal CA630, 5 mM EDTA, 1 mM PMSF, 10 μg/ml leupeptin, 50 mM NaF, 0.1 mM Na3VO4) or Deoxycholate buffer (10 mM phosphate buffer 7.4, […] NaCl, 0.5% Deoxycholate, 1% Igepal, 0.1% SDS, 1 mM PMSF). Protein concentration was determined with BCA Protein Assay Kit (Pierce) for RIPA extracts or Bradford assay (BioRad) for Deoxycholate extracts. Total protein (20-30 μg/lane) were separated by SDS-PAGE, transferred to PVDF membranes (Gellman), and probed with antibodies against Bcl-xL (Transduction); Bax (Santa Cruz); JNK (Santa Cruz); phospho-JNK (Cell Signaling); pRb (Pharmingen); pRb-phospho Ser780 (Cell Signalling); p130 (Santa Cruz); p107 (Santa Cruz); Cdk2 (Santa Cruz); p27^Kip1 (Santa Cruz); p21^Cip1 (Santa Cruz); actin (Sigma); or tubulin (ICN) and developed with ECL system (AmershamPharmacia biotech)
FIG. 8. Expression of protein involved in G0/G1 checkpoint. (A.) HT29 cells were treated for 1, 3, 6 and 24 h with N10-13-10C (40 μM) or N13-13-10C (35 µM), harvested and immunoblotted to assess total pRb levels or Cdk4 specific phosphorylation at pRb-Ser^780 (PpRb). Western blot was first probed with the pRb-Ser^780 phosphorylation specific antibody, was stripped and reprobed with the pan-pRb antibody and tubulin to normalize total protein level. (B.) T98 g cells were synchronized by serum starvation and reinitiated with 10% FCS and DMSO (C), N13-13-10C (100 μM) or Taxol (30 nM) for 15, 17, 24 or 29 h. Western blot of total protein extracts was probed with antibodies to p130, pRb, p107, Cdk2, cycA, p27, p21 and actin. Unphosphorylated, hypophosphorylated as well as hyperphosphorylated pRb are detected (arrows). (C.) HT29 cells treated for 24 and 48 h with N13-13-10C (40 μM) or DMSO as control. Immunoblots were stained with antibodies to Cdk2, cycA, p21, p27 and actin.

Structure (SMILES)	Cells retained in G1 [1]	IC50 [2] [µM]	pRb phosphorylation at Ser780 respect to total pRb levels ([3]; HT29, 35 μM, 1-24 h)	p21Cip1 expression ([3]; HT29, 24 h and 48 h)	p27Kip1 expression ([3]; HT29, 24 h and 48 h)	pRb levels compared to controls [3]
COc1ccc(CCNCC(=O)N(CCc2ccc(OC)cc2)CC(=O)N(CCc2ccccc2)CC(N)=O)cc1 [N13-13-10C]	Around 40%	150	did not decrease	Over expression	Over expression	decreased
COc1ccc(CCN(CC(=O)N(CCc2ccccc2)CC(N)=O)C(=O)CNCCc2ccccc2)cc1 [N10-13-10C]	Around 40%	100				decreased
